Common to all, as to type: functional
Experiment [1] concerns Staphylococcus haemolyticus. Description: Antibacterial activity against methicillin-resistant Staphylococcus haemolyticus after overnight incubation by micro broth dilution analysis. In general terms: Broth dilution looks for growth in wells or tubes with falling amounts of substance.
For experiment [2], the system named is Staphylococcus aureus. Briefly: Antibacterial activity against methicillin-resistant Staphylococcus aureus assessed as zone of inhibition at 800 ng/mL after 24 hrs by agar disc diffusion method. To be noted: read-out: IZ.
In experiment [3] the test system is Staphylococcus epidermidis. Description: Antibacterial activity against methicillin-resistant Staphylococcus epidermidis assessed as zone of inhibition at 20 ug/mL after 24 hrs by agar disc diffusion method. The settings on record: read-out: IZ.
Experiment [4] concerns Staphylococcus aureus. Description: Antibacterial activity against methicillin-resistant Staphylococcus aureus assessed as zone of inhibition at 200 ng/mL after 24 hrs by agar disc diffusion method. To be noted: read-out: IZ. (A growth-free zone around the sample is the usual read-out of agar diffusion tests.)
The test system of experiment [5] is Staphylococcus epidermidis. Briefly: Antibacterial activity against methicillin-resistant Staphylococcus epidermidis after overnight incubation by micro broth dilution analysis.
Experiment [6] relates to Staphylococcus aureus. Briefly: Antibacterial activity against methicillin-resistant Staphylococcus aureus assessed as zone of inhibition at 400 ng/mL after 24 hrs by agar disc diffusion method. To be noted: read-out: IZ.
For experiment [7], the system named is Staphylococcus haemolyticus. Briefly: Antibacterial activity against methicillin-resistant Staphylococcus haemolyticus assessed as zone of inhibition at 50 ug/mL after 24 hrs by agar disc diffusion method. To be noted: read-out: IZ.
Experiment [8] relates to Staphylococcus aureus. Description: Antibacterial activity against methicillin-resistant Staphylococcus aureus assessed as zone of inhibition at 50 ug/mL after 24 hrs by agar disc diffusion method. The settings on record: read-out: IZ.
Experiment [9] deals with Staphylococcus aureus. Description: Antibacterial activity against methicillin-resistant Staphylococcus aureus after overnight incubation by micro broth dilution analysis.
For experiment [10], the system named is Staphylococcus epidermidis. Description: Antibacterial activity against methicillin-resistant Staphylococcus epidermidis assessed as zone of inhibition at 800 ng/mL after 24 hrs by agar disc diffusion method. To be noted: read-out: IZ.
Experiment [11] concerns Staphylococcus epidermidis. Description: Antibacterial activity against methicillin-resistant Staphylococcus epidermidis assessed as zone of inhibition at 200 ng/mL after 24 hrs by agar disc diffusion method. The settings on record: read-out: IZ.
Experiment [12] has as its system Staphylococcus epidermidis. Briefly: Antibacterial activity against methicillin-resistant Staphylococcus epidermidis assessed as zone of inhibition at 400 ng/mL after 24 hrs by agar disc diffusion method. To be noted: read-out: IZ.

As usually defined, the MIC99 is an inhibitory concentration at the 99% level, which refers to growth in some studies and to a panel of isolates in others. A lower MIC99 goes with higher susceptibility.

≈ marks a conversion by molar mass, not a printed value.

With `O=S(=O)(F)/C=C/c1ccc(F)cc1`, the MIC99 in [1] was determined as 57.3 µg/mL (≈ 281 µM); in [5], 61.1 µg/mL (≈ 299 µM); against Staphylococcus aureus [9], 16.1 µg/mL (≈ 79 µM). The zone of inhibition at 0.8 µg/mL with Staphylococcus aureus [2] was determined as 4.5 mm. In addition, the zone of inhibition at 20 µg/mL in [3] is 5.2 mm. The zone of inhibition at 0.2 µg/mL in the experiment on Staphylococcus aureus [4] stood at 3.5 mm. The zone of inhibition at 0.4 µg/mL in the experiment with Staphylococcus aureus [6] was 4.1 mm. Also, the zone of inhibition at 50 µg/mL worked out at 4.2 mm in experiment [7] and 10.1 mm with Staphylococcus aureus [8].

Turning to `O=S(=O)(F)/C=C/c1cc2ccccc2s1`, the MIC99 in [1] worked out at 63.1 µg/mL (≈ 261 µM); in experiment [5], 70.2 µg/mL (≈ 290 µM); in the experiment with Staphylococcus aureus [9], 55 µg/mL (≈ 227 µM). Further, the zone of inhibition at 0.8 µg/mL in the experiment with Staphylococcus aureus [2] worked out at 8.5 mm. The zone of inhibition at 20 µg/mL in [3] was found to be 5.2 mm. Also, in the experiment on Staphylococcus aureus [4], the zone of inhibition at 0.2 µg/mL turned out to be 4.4 mm. The zone of inhibition at 0.4 µg/mL with Staphylococcus aureus [6] was found to be 6.3 mm. Further, the figures for the zone of inhibition at 50 µg/mL (in experiment [7]; in the experiment with Staphylococcus aureus [8]) were 4.5 mm and 8.2 mm, respectively.

Regarding `COc1cc(/C=C/S(=O)(=O)F)cc(OC)c1`, the figures for the MIC99 (in experiment [1]; in experiment [5]; in the experiment with Staphylococcus aureus [9]) were 50 µg/mL (≈ 203 µM), 57.1 µg/mL (≈ 232 µM) and 0.81 µg/mL (≈ 3.29 µM), respectively. The zone of inhibition at 0.8 µg/mL with Staphylococcus aureus [2] came out at 15.1 mm. For the same compound, the zone of inhibition at 20 µg/mL in experiment [3] turned out to be 5.3 mm. Also, the zone of inhibition at 0.2 µg/mL in the experiment on Staphylococcus aureus [4] turned out to be 1.2 mm. Moreover, in the experiment with Staphylococcus aureus [6], the zone of inhibition at 0.4 µg/mL came out at 13.1 mm. Moreover, the values for the zone of inhibition at 50 µg/mL (in experiment [7]; in the experiment with Staphylococcus aureus [8]) were 4.5 mm and 18.1 mm, respectively.

With `O=S(=O)(F)/C=C/c1ccccc1O`, the MIC99 was 61 µg/mL (≈ 302 µM) in [1], 58 µg/mL (≈ 287 µM) in experiment [5] and 0.853 µg/mL (≈ 4.22 µM) with Staphylococcus aureus [9]. Moreover, in the experiment on Staphylococcus aureus [2], the zone of inhibition at 0.8 µg/mL was 7.7 mm. The zone of inhibition at 20 µg/mL in experiment [3] is 6.2 mm. Moreover, the zone of inhibition at 0.2 µg/mL in the experiment on Staphylococcus aureus [4] stood at 3.5 mm. Moreover, the zone of inhibition at 0.4 µg/mL with Staphylococcus aureus [6] was 5.2 mm. Also, the zone of inhibition at 50 µg/mL worked out at 3.5 mm in experiment [7] and 12.1 mm in the experiment with Staphylococcus aureus [8].

As to `O=S(=O)(F)/C=C/c1ccsc1`, the MIC99 was determined as 48 µg/mL (≈ 250 µM) in experiment [1], 66.1 µg/mL (≈ 344 µM) in experiment [5] and 16.6 µg/mL (≈ 86.4 µM) in the experiment with Staphylococcus aureus [9]. For the same compound, in the experiment with Staphylococcus aureus [2], the zone of inhibition at 0.8 µg/mL was 4.5 mm. Also, the zone of inhibition at 20 µg/mL in experiment [3] stood at 8.5 mm. Further, the zone of inhibition at 0.2 µg/mL with Staphylococcus aureus [4] is 3.2 mm. In addition, the zone of inhibition at 0.4 µg/mL in the experiment with Staphylococcus aureus [6] came out at 4.2 mm. Also, the zone of inhibition at 50 µg/mL in experiment [7] was 4.52 mm; in the experiment with Staphylococcus aureus [8] it was 8.2 mm.

For the compound `O=S(=O)(F)/C=C/c1ccc(OC(F)(F)F)cc1`, the MIC99 in experiment [1] was 61.2 µg/mL (≈ 227 µM); in [5], 0.81 µg/mL (≈ 3 µM); against Staphylococcus aureus [9] it was 40.2 µg/mL (≈ 149 µM). In addition, in [3], the zone of inhibition at 20 µg/mL turned out to be 17.6 mm. In addition, the figures for the zone of inhibition at 50 µg/mL (in experiment [7]; in the experiment with Staphylococcus aureus [8]) were 4.3 mm and 6.1 mm, respectively. Besides, the zone of inhibition at 0.8 µg/mL in [10] stood at 10.4 mm. The zone of inhibition at 0.2 µg/mL in [11] is 7.1 mm. For the same compound, the zone of inhibition at 0.4 µg/mL in experiment [12] amounted to 8.3 mm.

Take `O=S(=O)(F)/C=C/c1cccc(F)c1`: the MIC99 in experiment [1] was 44.1 µg/mL (≈ 216 µM); in experiment [5], 72.3 µg/mL (≈ 354 µM); against Staphylococcus aureus [9] it was 15.2 µg/mL (≈ 74.3 µM). Besides, the zone of inhibition at 0.8 µg/mL in the experiment with Staphylococcus aureus [2] was 5.1 mm. For the same compound, the zone of inhibition at 20 µg/mL in experiment [3] was 3.5 mm. For the same compound, the zone of inhibition at 0.2 µg/mL in the experiment with Staphylococcus aureus [4] was found to be 3.5 mm. For the same compound, the zone of inhibition at 0.4 µg/mL in the experiment on Staphylococcus aureus [6] was determined as 4.4 mm. For the same compound, the figures for the zone of inhibition at 50 µg/mL (in experiment [7]; in the experiment on Staphylococcus aureus [8]) were 4.2 mm and 9.1 mm, respectively.

For the compound `O=S(=O)(F)/C=C/c1ccc(Br)cc1`, the results for the MIC99 (in [1]; in [5]; with Staphylococcus aureus [9]) were 66.1 µg/mL (≈ 249 µM), 0.837 µg/mL (≈ 3.16 µM) and 48.2 µg/mL (≈ 182 µM), respectively. The zone of inhibition at 20 µg/mL in experiment [3] stood at 7.3 mm. Further, the zone of inhibition at 50 µg/mL in experiment [7] came out at 6.1 mm; in the experiment with Staphylococcus aureus [8], 7.5 mm. The zone of inhibition at 0.8 µg/mL in experiment [10] was 7.5 mm. For the same compound, the zone of inhibition at 0.2 µg/mL in [11] is 5.2 mm. Also, the zone of inhibition at 0.4 µg/mL in experiment [12] stood at 6.2 mm.

Turning to `O=S(=O)(F)/C=C/C=C/c1cccc(F)c1`, the MIC99 in experiment [1] is 50.1 µg/mL (≈ 218 µM); in experiment [5], 0.82 µg/mL (≈ 3.56 µM); in the experiment on Staphylococcus aureus [9], 48 µg/mL (≈ 209 µM). The zone of inhibition at 20 µg/mL in [3] amounted to 8.3 mm. Also, the zone of inhibition at 50 µg/mL was found to be 5.5 mm in experiment [7] and 7.2 mm with Staphylococcus aureus [8]. Besides, the zone of inhibition at 0.8 µg/mL in experiment [10] turned out to be 8.3 mm. Besides, in experiment [11], the zone of inhibition at 0.2 µg/mL amounted to 4.2 mm. Besides, the zone of inhibition at 0.4 µg/mL in experiment [12] amounted to 6.1 mm.

As for `O=S(=O)(F)/C=C/c1cnn(-c2ccccc2)c1`, the MIC99 in experiment [1] came to 51.1 µg/mL (≈ 203 µM); in experiment [5], 52.3 µg/mL (≈ 207 µM); against Staphylococcus aureus [9], 51.2 µg/mL (≈ 203 µM). Moreover, in experiment [3], the zone of inhibition at 20 µg/mL turned out to be 4.3 mm. Also, the zone of inhibition at 50 µg/mL worked out at 3.5 mm in experiment [7] and 3.1 mm in the experiment on Staphylococcus aureus [8].
